Like-named read-outs stand apart in the source and are kept apart here.
Columns and labels:
recombinant hCE-1 = molecular target: T1, recombinant hCE-1 (Homo sapiens, UniProt P23141); test: HCE-1 carboxylesterase assay; assay type: in vitro ADME; settings: result in words
T1 sequence (P23141 18-567): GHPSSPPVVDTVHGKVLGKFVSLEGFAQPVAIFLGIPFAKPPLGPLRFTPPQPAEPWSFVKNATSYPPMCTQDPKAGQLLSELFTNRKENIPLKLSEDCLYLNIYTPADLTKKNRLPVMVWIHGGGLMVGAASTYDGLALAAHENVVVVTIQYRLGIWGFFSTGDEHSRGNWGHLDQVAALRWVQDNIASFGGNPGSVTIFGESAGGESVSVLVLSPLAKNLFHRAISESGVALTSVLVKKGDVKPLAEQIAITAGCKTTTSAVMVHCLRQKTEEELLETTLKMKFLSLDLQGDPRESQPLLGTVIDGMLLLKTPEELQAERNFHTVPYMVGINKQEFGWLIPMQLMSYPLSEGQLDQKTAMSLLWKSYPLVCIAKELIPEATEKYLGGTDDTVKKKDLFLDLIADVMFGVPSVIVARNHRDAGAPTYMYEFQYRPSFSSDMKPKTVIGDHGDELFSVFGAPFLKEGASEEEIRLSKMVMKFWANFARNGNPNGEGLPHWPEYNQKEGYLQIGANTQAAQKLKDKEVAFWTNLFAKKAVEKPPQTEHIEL
Experimental: HCE-1 Carboxylesterase Assay
Hydrolysis of esters to the corresponding carboxylic acids by hCE-1 can be measured using the following procedure. At zero time, 100 μl of recombinant hCE-1 at a concentration of 6 μg/mL in phosphate assay buffer (K2PO4 100 mM, KCl 40 mM, pH 7.4) was added to an equal volume of assay buffer containing 5 μM ester substrate. After thorough mixing, triplicate samples were incubated for 0, 20 or 80 minutes at 37° C. At the appropriate time, hydrolysis was stopped by the addition of 600 μl of acetonitrile. For zero time samples, the acetonitrile was added prior to the enzyme. The samples were analysed for the ester and its corresponding carboxylic acid at room temperature by LCMS (Sciex API 3000, HP1100 binary pump, CTC PAL). Chromatography was based on a […] (75×2.1 mm) column and a mobile phase of 5-95% acetonitrile in water/0.1% formic add. Levels of the acid, the hydrolysis product, after 80 minutes are expressed in ng/mL.

[1] = system: phosphorylation of MAPKAP-2 in U937 cells; test: p38 MAP Kinase cellular assay: inhibition of phosphorylation of MAPKAP2 in U937 cells; assay type: cell-based; settings: for IC50: Homo sapiens, U-937
Experimental: (§1) p38 MAP Kinase Cellular Assay: Inhibition of Phosphorylation of MAPKAP2
(§2) U937 or HUT78 cells were plated in RPMI 1640, and were incubated at 37° C., 5% CO2 for 18 hours. 10 mM stocks of compounds were diluted media/0.1% DMSO to give a log or semi-log dilution series. The wells for ‘no treatment’ and ‘anisomycin’ were treated with 0.1% DMSO only. The cells were incubated at 37° C., 5% CO2 for a further 4 hours. Anisomycin was added to all wells except ‘no treatment’ at a final concentration of 10 μM. The cells were incubated at 37° C., 5% CO2 for 30 minutes before harvest. Plates were stood on ice whilst harvesting, and all following steps were carried out at 4° C. The cells were pelleted at 1000 rpm for 10 minutes at 4° C., the media aspirated, and the pellet washed with cold PBS. The pellets were lysed in 120 μl of SDS lysis buffer (62.5 mM Tris, pH 6.8, 2% SDS, 10% glycerol, 50 mM DTT, with protease inhibitors and phosphatase inhibitors added according to the manufacturers' recommendations). After 30 minutes on ice, the samples were sonicated for 5 seconds before centrifugation at 13,000 rpm 4° C. for 10 minutes to remove cell debris. 10 μl of the resulting gel samples were loaded per lane on NOVEX 4-12% Bis-Tris MOPS gels. Membranes from western transfer of gels were blotted with anti-phospho MAPKAP2, anti-phospho HSP27 and anti GAPDH according to the manufacturers' Instructions. Signal was visualised using HRP-Hnked anti-rabbit or anti-mouse antibodies, ECL reagent and ECL film. IC50 values for the various compounds were visualised from the resulting photographic images, using both band-shift and signal intensity.

U937 cells = test: Cell accumulation assay in U937 cells; assay type: in vitro ADME; settings: U937 versus HUT 78; result in words
Experimental: Cells (8×10^4/mL) were incubated at 37° C. in culture medium containing 6 μM compound in a 5% (v/v) CO2-humidified atmosphere. Incubations were terminated after 6 h by centrifugation of 25 mL aliquots of the cell suspension at 300 g for 5 minutes at 4° C. 0.2 mL samples of the culture media supernatants were added to 4 volumes of acetonitrile (Sigma-Aldrich). After decanting the supernatant, the residual cell pellet (2×10^6 cells) was extracted into 1 mL of acetonitrile. Samples were then analysed for the ester and acid metabolite at room temperature by LC/MS/MS (Sciex API3000). Chromatography was based on a MeCN (75×21 mm) column with a 5-95% (v/v) acetonitrile, 0.1% (v/v) formic acid mobile phase. For the zero time samples, the cell suspension was chilled and centrifuged as soon as the ester had been added and then extracted into acetonitrile as described. Levels in cells are expressed as ng/mL.

[2] = system: phosphorylation of MAPKAP-2 in HUT 78 cells; test: p38 MAP Kinase cellular assay: inhibition of phosphorylation of MAPKAP2 in HUT 78 cells; assay type: cell-based; settings: Table 2
Experimental: as §1, §2

hydrolysis by hCE-1 (recombinant hCE-1): hydrolysed by hCE-1
IC50 ([1]; Table 1 (biology), U937 cells, read-out: Inhibition of phosphorylation of MAPKAP-2 in U937 cells (IC50)): 10 nM
IC50 ([1]; Table 2, U937 monocyte cell line, read-out: Inhibition of phosphorylation of MAPKAP-2 in U937 cells (IC50, nM) (monocyte cell line)): 10 nM
Ratio cell IC50s to enzyme IC50 ([1]; U937 MAPKAP-2 IC50 to P38 enzyme IC50): 0.2
IC50 ([2]; Homo sapiens, HuT78, HUT 78 non-monocyte cell line): 1000 nM
Compound: CC(C)(NCCc1ccc(-n2c(N)c(C(=O)c3ccc(F)cc3F)ccc2=O)cc1)C(=O)OC1CCCC1 [Example 1]
potency in monocytic versus non monocytic cell lines (MAPKAP-2 phosphorylation) ([1]; U937 versus HUT 78): 100 times
potency in the p38 cellular assay compared with the parent compound ([1]; versus Compound I): significantly more potent than the parent compound
accumulation in monocytic versus non-monocytic cell line (U937 cells): only accumulates in the monocytic cell line
Ratio IC50s in HUT 78 to U937 cells ([2]; MAPKAP-2 phosphorylation IC50s): 100
